IC50 data for 21 molecules are collected here from patent US20230081390A1, “INHIBITORS OF RAF KINASES” (Kinnate Biopharma Inc., priority 2019, published 2023).

SMILES strings stand for the structures.

Chain of human RAF1 (P04049 whole entry): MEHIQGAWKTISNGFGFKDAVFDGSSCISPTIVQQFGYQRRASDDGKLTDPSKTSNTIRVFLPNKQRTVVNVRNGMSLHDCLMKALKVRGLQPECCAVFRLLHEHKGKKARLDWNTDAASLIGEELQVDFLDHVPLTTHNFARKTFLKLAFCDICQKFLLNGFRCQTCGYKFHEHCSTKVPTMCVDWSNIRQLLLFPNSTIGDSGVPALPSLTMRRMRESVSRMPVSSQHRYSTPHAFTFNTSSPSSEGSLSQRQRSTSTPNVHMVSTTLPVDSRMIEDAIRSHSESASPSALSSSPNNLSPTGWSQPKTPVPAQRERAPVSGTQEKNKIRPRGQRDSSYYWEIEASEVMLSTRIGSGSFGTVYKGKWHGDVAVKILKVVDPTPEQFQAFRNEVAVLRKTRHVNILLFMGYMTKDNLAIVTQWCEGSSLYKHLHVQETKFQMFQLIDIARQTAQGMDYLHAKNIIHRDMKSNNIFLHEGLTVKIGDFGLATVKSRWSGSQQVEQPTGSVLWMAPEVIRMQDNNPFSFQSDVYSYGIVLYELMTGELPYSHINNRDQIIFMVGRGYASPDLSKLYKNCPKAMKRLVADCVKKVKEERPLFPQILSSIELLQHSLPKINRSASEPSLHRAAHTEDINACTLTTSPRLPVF

The test deals with human RAF1 (Homo sapiens, UniProt P04049). Description: Protein kinase assay (33P-ATP filter binding), human RAF1, 10-dose IC50. Type of test: biochemical. The conditions noted are these: MEK1 (K97R) substrate 3 micromolar, ATP 10 micromolar, read-out: RAF-1 IC50. Here is the method:
In brief, for each reaction, kinase and substrate were mixed in a buffer containing 20 mM HEPES (pH 7.5), 10 mM MgCl2, 1 mM EGTA, 0.02% Brij35, 0.02 mg/mL BSA, 0.1 mM Na3VO4, 2 mM DTT, and […]. All compounds were solubilized in DMSO. Compounds were then added to each reaction mixture via acoustic dispense using an ECHO 550 nanoliter dispenser. For human RAF1 testing, human MEK1 (K97R) was used as a substrate at a concentration of 3 micromolar, with a final ATP concentration of 10 micromolar. […] Reactions were carried out at room temperature for 2 hr and spotted onto P81 ion exchange cellulose chromatography paper (Reaction Biology). […] The percent remaining kinase activity relative to a vehicle-containing (DMSO) kinase reaction was calculated for each kinase/inhibitor pair. IC50 values were calculated using Prism 5 (GraphPad).
Take `Cc1ccc(NC(=O)N2CC[C@@H](CC(F)(F)F)C2)cc1-c1cc(O[C@H]2CC[C@@H](O)C2)nc(N2CCOCC2)c1` [Example 209, (3S)-N-[3-(2-[[(1S,3R)-3-hydroxycyclopentyl]oxy]-6-(morpholin-4-yl)pyridin-4-yl)-4-methylphenyl]-3-(2,2,2-trifluoroethyl)pyrrolidine-1-carboxamide]: the IC50 (as a rule, the midpoint of a concentration-inhibition curve) was < 10 nM.

With `Cc1ccc(NC(=O)N2CC[C@@H](OC(F)(F)F)C2)cc1-c1cc(OC[C@H](C)O)nc(N2CCOCC2)c1` [Example 213, (3R)-N-(3-[2-[(2S)-2-hydroxypropoxy]-6-(morpholin-4-yl)pyridin-4-yl]-4-methylphenyl)-3-(trifluoromethoxy)pyrrolidine-1-carboxamide], the IC50 was < 10 nM.

As for `Cc1cc(F)c(NC(=O)N2CC[C@H](OC(F)(F)F)C2)cc1-c1cnc(OC2CCOCC2)c(N2CCOCC2)c1` [Example 127, (3S)-N-[2-fluoro-4-methyl-5-[5-(morpholin-4-yl)-6-(oxan-4-yloxy)pyridin-3-yl]phenyl]-3-(trifluoromethoxy)pyrrolidine-1-carboxamide], the IC50 is < 10 nM.

For `Cc1cc(F)c(NC(=O)N2CC[C@@]3(C2)CC3(F)F)cc1-c1cc(OCCO)nc(N2CCOCC2)c1` (single isomer, unassigned) [Example 63], the IC50 was < 10 nM.

For `Cc1cc(F)c(NC(=O)N2CCO[C@@H](C(C)(F)F)C2)cc1-c1cc(OCCO)nc(N2CCOCC2)c1` (single isomer, unassigned) [Example 59], the concentration for half-maximal inhibition (IC50) is < 10 nM.

Take `Cc1cc(F)c(NC(=O)N2CCCC(F)(F)C2)cc1-c1cc(OCCO)nc(N2CCOCC2)c1` [Example 24, 3,3-difluroo-N-(2-fluoro-5-(2-(2-hydroxyethoxy)-6-morpholinopyridin-4-yl)-4-methylphenyl)piperidine-1-carboxamide]: the IC50 was 10 to 100 nM.

In the case of `Cc1ccc(NC(=O)N2CC[C@@H](CC(F)(F)F)C2)cc1-c1cc(OCCC2(O)COC2)nc(N2CCOCC2)c1` [Example 225, (3S)-N-(3-[2-[2-(3-hydroxyoxetan-3-yl)ethoxy]-6-(morpholin-4-yl)pyridin-4-yl]-4-methylphenyl)-3-(2,2,2-trifluoroethyl)pyrrolidine-1-carboxamide], the IC50 is < 10 nM.

Regarding `Cc1cc(F)c(NC(=O)N2CCC(C(C)C(F)(F)F)C2)cc1-c1cc(OCCO)nc(N2CCOCC2)c1` (single isomer, unassigned) [Example 101, N-[2-fluoro-5-[2-(2-hydroxyethoxy)-6-(morpholin-4-yl)pyridin-4-yl]-4-methylphenyl]-3-(1,1,1-trifluoropropan-2-yl)pyrrolidine-1-carboxamide], the IC50 is < 10 nM.

For the molecule `Cc1ccc(NC(=O)N2CC[C@H](C(F)(F)F)C2)cc1-c1cnc(OCCO)c(N2CCOCC2)c1` (single isomer, unassigned) [Example 15], the IC50 was < 10 nM.

Regarding `Cc1cc(F)c(NC(=O)N2CCC(C(F)(F)F)C2C)cc1-c1cc(OCCO)nc(N2CCOCC2)c1` (single isomer, unassigned) [Example 65, N-[2-fluoro-5-[2-(2-hydroxyethoxy)-6-(morpholin-4-yl)pyridin-4-yl]-4-methylphenyl]-2-methyl-3-(trifluoromethyl)pyrrolidine-1-carboxamide], the half-maximal inhibitory concentration (IC50) was 10 to 100 nM.

In the case of `Cc1ccc(NC(=O)N2CC[C@@H](CC(F)(F)F)C2)cc1-c1cc(OCC2(O)CC2)nc(N2CCOCC2)c1` [Example 218, (3S)-N-(3-[2-[(1-hydroxycyclopropyl)methoxy]-6-(morpholin-4-yl)pyridin-4-yl]-4-methylphenyl)-3-(2,2,2-trifluoroethyl)pyrrolidine-1-carboxamide], the IC50 was < 10 nM.

With `Cc1cc(F)c(NC(=O)N2CCC(C(F)(F)F)C2C)cc1-c1cc(OCCO)nc(N2CCOCC2)c1` (single isomer, unassigned) [Example 66, N-[2-fluoro-5-[2-(2-hydroxyethoxy)-6-(morpholin-4-yl)pyridin-4-yl]-4-methylphenyl]-2-methyl-3-(trifluoromethyl)pyrrolidine-1-carboxamide], the IC50 is < 10 nM.

Consider `Cc1ccc(NC(=O)N2CC[C@H](SC(F)(F)F)C2)cc1-c1cc(OCCO)nc(N2CCOCC2)c1` (single isomer, unassigned) [Example 118], for which the concentration for half-maximal inhibition (IC50) was < 10 nM.

With `Cc1ccc(NC(=O)N2CC[C@@H](OC(F)(F)F)C2)cc1-c1cc(OC2CNC2)nc(N2CCOCC2)c1` [Example 205, (R)-N-(3-(2-(azetidin-3-yloxy)-6-morpholinopyridin-4-yl)-4-methylphenyl)-3-(trifluoromethoxy)pyrrolidine-1-carboxamide], the half-inhibitory concentration (IC50) was < 10 nM.

Regarding `Cc1ccc(NC(=O)N2C[C@@H]3[C@H](C2)[C@H]3C(F)(F)F)cc1-c1cc(OCCO)nc(N2CCOCC2)c1` [Example 176, (1R,5S,6r)-N-(3-(2-(2-hydroxyethoxy)-6-morpholinopyridin-4-yl)-4-methylphenyl)-6-(trifluoromethyl)-3-azabicyclo[3.1.0]hexane-3-carboxamide], the concentration for half-maximal inhibition (IC50) was < 10 nM.

In the case of `Cc1ccc(NC(=O)N2CC[C@@H](CC(F)(F)F)C2)cc1-c1cc(OC2CCC(C)(O)CC2)nc(N2CCOCC2)c1` (stereo partly drawn) [Example 211, (3S)-N-(3-[2-[(4-hydroxy-4-methylcyclohexyl)oxy]-6-(morpholin-4-yl)pyridin-4-yl]-4-methylphenyl)-3-(2,2,2-trifluoroethyl)pyrrolidine-1-carboxamide (cis)], the IC50 was < 10 nM.

For `Cc1ccc(NC(=O)N2CC[C@H](OC(F)F)C2)cc1-c1cc(O[C@H](C)[C@@H](C)O)nc(N2CCOCC2)c1` [Example 174, (S)-3-(difluoromethoxy)-N-(3-(2-(((2R,3R)-3-hydroxybutan-2-yl)oxy)-6-morpholinopyridin-4-yl)-4-methylphenyl)pyrrolidine-1-carboxamide], the 50% inhibitory concentration (IC50) is < 10 nM.

As for `Cc1cc(F)c(NC(=O)N2CCC3(CCC3(F)F)C2)cc1-c1cc(OCCO)nc(N2CCOCC2)c1` (single isomer, unassigned) [Example 91, 1,1-difluoro-N-[2-fluoro-5-[2-(2-hydroxyethoxy)-6-(morpholin-4-yl)pyridin-4-yl]-4-methylphenyl]-6-azaspiro[3.4]octane-6-carboxamide], the half-inhibitory concentration (IC50) was < 10 nM.

Take `Cc1cc(F)c(NC(=O)NCC(F)(F)C(F)(F)F)cc1-c1cc(OCCO)nc(N2CCOCC2)c1` [Example 35, 1-[2-fluoro-5-[2-(2-hydroxyethoxy)-6-(morpholin-4-yl)pyridin-4-yl]-4-methylphenyl]-3-(2,2,3,3,3-pentafluoropropyl)urea]: the IC50 was < 10 nM.

For `Cc1cc(F)c(NC(=O)N2CCC3C2C3C(F)(F)F)cc1-c1cc(OCCO)nc(N2CCOCC2)c1` (single isomer, unassigned) [Example 70, N-[2-fluoro-5-[2-(2-hydroxyethoxy)-6-(morpholin-4-yl)pyridin-4-yl]-4-methylphenyl]-6-(trifluoromethyl)-2-azabicyclo[3.1.0]hexane-2-carboxamide], the IC50 lay in the range of 10 to 100 nM.

Take `Cc1ccc(NC(=O)N2CCC(CC(F)(F)F)C2)cc1-c1cc(OC[C@@H](O)CO)nc(N2CCOCC2)c1` (stereo partly drawn) [Example 179, N-(3-(2-((S)-2,3-dihydroxypropoxy)-6-morpholinopyridin-4-yl)-4-methylphenyl)-3-(2,2,2-trifluoroethyl)pyrrolidine-1-carboxamide]: the IC50 is < 10 nM.
